# Active and inactive are the calls of the source.
# Assays:
# [1] = system: Streptococcus sp. 'group A'; experiment: growth inhibition of control SK(-) GAS strain, dose response, counter-screen for streptokinase expression inhibitor project, luminescence, kanamycin, BacTiterGlo, confirmation (AID 1900); type: functional, organism-based
# Streptokinase A = molecular target: T1, Streptokinase A (Streptococcus pyogenes serotype M1, UniProt P10520); experiment: S. pyogenes streptokinase expression inhibitors, potency, dose response, plasminogen activation absorbance, OD405 (AID 1914); type: functional, Streptococcus pyogenes M1 GAS;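 further: secreted streptokinase activity via plasminogen activation per viability signal from cell pellet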
# T1 sequence (P10520 whole entry): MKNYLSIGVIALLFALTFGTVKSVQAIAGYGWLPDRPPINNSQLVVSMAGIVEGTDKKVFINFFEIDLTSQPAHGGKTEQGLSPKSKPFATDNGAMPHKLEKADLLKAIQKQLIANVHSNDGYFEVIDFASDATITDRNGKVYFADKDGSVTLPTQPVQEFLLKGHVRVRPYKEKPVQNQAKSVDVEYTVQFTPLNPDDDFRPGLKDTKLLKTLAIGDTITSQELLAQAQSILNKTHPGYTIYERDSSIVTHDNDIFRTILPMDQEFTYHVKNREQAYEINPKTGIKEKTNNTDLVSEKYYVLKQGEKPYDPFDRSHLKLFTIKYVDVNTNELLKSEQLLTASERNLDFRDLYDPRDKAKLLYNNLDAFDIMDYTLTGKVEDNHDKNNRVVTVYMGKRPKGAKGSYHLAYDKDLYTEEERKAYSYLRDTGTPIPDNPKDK
# [2] = microbe, parasite or virus in culture; type: functional; settings: Mycobacterium tuberculosis
# Streptococcus = experiment: Group A Streptococcus viability loss, dose response, counter-screen for streptokinase expression inhibitor project, luminescence, BacTiterGlo (AID 1915); type: functional, organism-based;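 further: potency for reduction of bacterial viability or growth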
# [3] = Luminescence Cell-Based Dose Retest to Confirm Inhibitors of Cancer Stem Cells. [Related pubchem assays (depositor defined):AID2717, AID2721]; type: functional; settings: Homo sapiens
# [4] = molecular target: Heat shock protein HSP 90-alpha (Homo sapiens, UniProt P07900); type: functional, organism-based
# Coagulation factor XII = molecular target: T2, Coagulation factor XII (Homo sapiens, UniProt P00748); type: functional;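 further: activated factor XIIa alpha cleaving a fluorogenic AMC peptide substrate; inhibitor potency from loss of enzyme activity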
# T2 sequence (P00748 whole entry): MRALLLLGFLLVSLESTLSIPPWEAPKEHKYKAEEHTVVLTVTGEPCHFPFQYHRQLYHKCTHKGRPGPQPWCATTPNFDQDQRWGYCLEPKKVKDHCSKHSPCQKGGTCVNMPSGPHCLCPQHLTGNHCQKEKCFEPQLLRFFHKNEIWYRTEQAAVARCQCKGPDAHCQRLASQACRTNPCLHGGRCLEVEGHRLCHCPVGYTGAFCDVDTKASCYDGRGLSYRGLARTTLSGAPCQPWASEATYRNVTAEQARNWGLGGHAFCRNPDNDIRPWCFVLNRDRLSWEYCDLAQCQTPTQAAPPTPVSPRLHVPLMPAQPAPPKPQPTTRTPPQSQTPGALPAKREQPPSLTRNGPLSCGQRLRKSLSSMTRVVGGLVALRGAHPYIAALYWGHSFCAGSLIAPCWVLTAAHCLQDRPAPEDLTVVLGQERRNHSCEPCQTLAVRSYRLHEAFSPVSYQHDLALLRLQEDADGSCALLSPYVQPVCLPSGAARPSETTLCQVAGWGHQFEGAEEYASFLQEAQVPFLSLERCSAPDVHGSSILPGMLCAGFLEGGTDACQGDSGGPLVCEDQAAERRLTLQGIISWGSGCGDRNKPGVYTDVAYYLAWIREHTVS
# Cytochrome P450 3A4 = Cytochrome P450 3A4 (Homo sapiens, UniProt P08684);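 further: CYP3A4 tested as one member of a cytochrome P450 panel screen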
# Cytochrome P450 3A4, sequence (P08684 whole entry): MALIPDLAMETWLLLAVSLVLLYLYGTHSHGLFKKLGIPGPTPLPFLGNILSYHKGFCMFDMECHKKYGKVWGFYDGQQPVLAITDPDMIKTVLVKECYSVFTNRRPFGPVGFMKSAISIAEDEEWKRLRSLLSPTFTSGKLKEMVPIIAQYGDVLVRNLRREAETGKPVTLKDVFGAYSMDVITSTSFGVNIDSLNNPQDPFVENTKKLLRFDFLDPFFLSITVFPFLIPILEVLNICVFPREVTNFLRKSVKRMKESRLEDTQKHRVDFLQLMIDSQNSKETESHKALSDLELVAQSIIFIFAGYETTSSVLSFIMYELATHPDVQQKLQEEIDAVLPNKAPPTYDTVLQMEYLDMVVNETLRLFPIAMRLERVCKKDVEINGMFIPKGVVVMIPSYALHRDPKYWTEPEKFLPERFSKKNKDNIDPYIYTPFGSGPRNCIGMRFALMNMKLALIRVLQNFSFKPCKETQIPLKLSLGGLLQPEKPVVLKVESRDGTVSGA
# Cytochrome P450 2C9 = Cytochrome P450 2C9 (Homo sapiens, UniProt P11712)
# Cytochrome P450 2C9, sequence (P11712 whole entry): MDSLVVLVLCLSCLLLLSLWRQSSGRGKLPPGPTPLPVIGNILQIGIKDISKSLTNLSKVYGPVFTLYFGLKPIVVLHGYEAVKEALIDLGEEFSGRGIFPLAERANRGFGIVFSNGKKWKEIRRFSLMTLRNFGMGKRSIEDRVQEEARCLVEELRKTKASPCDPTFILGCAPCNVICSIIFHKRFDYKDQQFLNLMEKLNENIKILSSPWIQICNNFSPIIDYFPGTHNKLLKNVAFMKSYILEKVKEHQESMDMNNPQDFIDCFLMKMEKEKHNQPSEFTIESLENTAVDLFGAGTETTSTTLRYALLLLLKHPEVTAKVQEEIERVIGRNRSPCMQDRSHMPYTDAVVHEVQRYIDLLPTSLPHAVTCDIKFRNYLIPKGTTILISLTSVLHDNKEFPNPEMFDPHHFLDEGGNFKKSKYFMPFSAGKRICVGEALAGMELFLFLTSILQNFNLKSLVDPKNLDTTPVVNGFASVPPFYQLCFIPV
# [5] = human group III sPLA2 inhibitors, dose response, biochemical, QFRET, IC50 (AID 743457);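 further: green fluorescence rise as the enzyme cleaves BODIPY PC-A2 in liposomes; potency for inhibition of the enzyme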
# Mu-type opioid receptor = Mu-type opioid receptor (Homo sapiens, UniProt P35372); type: functional, cell-based;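 further: U2OS cells with beta-arrestin recruitment to OPRM1 by beta-gal complementation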
# Mu-type opioid receptor, sequence (P35372 whole entry): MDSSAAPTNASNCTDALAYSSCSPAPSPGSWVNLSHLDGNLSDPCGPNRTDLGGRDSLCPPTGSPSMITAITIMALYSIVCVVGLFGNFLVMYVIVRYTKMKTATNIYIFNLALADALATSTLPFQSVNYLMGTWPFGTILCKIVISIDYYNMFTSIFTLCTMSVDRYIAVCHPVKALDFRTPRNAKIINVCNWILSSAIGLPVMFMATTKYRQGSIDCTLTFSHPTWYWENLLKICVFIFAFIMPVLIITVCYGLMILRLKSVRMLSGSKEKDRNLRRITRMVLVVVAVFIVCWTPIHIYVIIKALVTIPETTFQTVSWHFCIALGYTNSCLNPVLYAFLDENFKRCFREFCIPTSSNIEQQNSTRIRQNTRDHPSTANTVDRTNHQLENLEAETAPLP
# [6] = molecular target: 5-hydroxytryptamine receptor 2A (Mus musculus, UniProt P35363); type: functional, cell-based;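 further: CHO-K1 cells with tagged receptor and beta-arrestin; agonist potency measured as compound-induced activation of the receptor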
# 5-hydroxytryptamine receptor 2A, sequence (P35363 whole entry): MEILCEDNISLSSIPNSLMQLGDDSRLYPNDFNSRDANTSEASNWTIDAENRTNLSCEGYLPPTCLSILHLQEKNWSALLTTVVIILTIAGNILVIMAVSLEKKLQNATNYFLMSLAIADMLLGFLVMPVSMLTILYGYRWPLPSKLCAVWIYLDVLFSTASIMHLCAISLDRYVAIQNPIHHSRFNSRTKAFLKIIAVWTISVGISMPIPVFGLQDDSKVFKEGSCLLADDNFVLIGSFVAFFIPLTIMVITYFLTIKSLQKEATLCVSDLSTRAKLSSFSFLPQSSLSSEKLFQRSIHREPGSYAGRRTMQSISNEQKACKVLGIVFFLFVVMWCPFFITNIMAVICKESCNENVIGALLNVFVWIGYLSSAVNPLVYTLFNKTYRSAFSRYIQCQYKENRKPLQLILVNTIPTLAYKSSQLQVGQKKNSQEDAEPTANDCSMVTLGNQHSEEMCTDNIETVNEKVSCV
# [7] = Shn3 3'UTR reporter inhibitors, dose response, cell-based, Clone20 osteoblasts, firefly luciferase, cherry-picked (AID 624132); type: functional;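 further: firefly luciferase luminescence from reporter carrying the Shn3 3'UTR in osteoblasts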
# [8] = HepG2 cell cytotoxicity, dose response, cytotoxicity control for Shn3 inhibitor project, CellTiter-Glo, cherry-picked (AID 624134); type: functional, cell-based
# [9] = control 3'UTR Renilla luciferase suppression, dose response, counter-screen for Shn3 inhibitor project, cell-based, Clone20-Shn3RL, cherry-picked (AID 624133); type: functional
# [10] = molecular target: T3, Microphthalmia-associated transcription factor (Homo sapiens, UniProt O75030); experiment: TRPM1 promoter luciferase signal decrease, dose response, MITF inhibitor project, cell-based, SK-MEL-5, cherry-picked, set 3 (AID 493073); type: functional
# T3 sequence (O75030 whole entry): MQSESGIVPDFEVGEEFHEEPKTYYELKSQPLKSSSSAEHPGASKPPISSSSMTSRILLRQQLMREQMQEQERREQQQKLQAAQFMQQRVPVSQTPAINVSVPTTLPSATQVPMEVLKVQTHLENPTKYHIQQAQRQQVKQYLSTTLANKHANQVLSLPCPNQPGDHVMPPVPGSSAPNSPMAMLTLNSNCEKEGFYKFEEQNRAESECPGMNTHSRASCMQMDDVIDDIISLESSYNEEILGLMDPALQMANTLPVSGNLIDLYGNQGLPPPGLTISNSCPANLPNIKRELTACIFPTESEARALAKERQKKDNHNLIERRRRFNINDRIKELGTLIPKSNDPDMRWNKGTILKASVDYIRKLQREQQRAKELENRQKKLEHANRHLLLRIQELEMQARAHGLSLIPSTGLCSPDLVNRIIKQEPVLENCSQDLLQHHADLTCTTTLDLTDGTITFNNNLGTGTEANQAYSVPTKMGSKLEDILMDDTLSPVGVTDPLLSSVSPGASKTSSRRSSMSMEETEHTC
# Paired box protein Pax-8 = Paired box protein Pax-8 (Homo sapiens, UniProt Q06710); experiment: inhibitors of PAX8-driven TPO luciferase reporter, dose response, RMG-I cells, cherry-pick (AID 687027); type: functional, cell-based;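 further: luciferase reporter driven by Pax8 target thyroperoxidase promoter measured by SteadyGlo luminescence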
# Paired box protein Pax-8, sequence (Q06710 whole entry): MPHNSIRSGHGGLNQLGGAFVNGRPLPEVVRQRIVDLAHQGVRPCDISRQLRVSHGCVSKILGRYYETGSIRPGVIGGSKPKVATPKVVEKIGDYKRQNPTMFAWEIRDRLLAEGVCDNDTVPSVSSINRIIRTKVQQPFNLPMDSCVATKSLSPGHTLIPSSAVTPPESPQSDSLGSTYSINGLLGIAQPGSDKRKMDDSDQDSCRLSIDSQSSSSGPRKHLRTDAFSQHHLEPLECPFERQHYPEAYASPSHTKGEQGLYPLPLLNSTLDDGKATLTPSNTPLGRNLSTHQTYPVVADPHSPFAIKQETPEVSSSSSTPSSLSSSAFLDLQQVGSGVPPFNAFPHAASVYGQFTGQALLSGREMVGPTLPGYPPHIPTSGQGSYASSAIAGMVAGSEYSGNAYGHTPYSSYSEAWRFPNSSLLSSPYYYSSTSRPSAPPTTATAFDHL
# [11] = A549 cell cytotoxicity, dose response, cytotoxicity control, plate reader, cherry-pick, antagonist series (AID 743412); type: functional, cell-based
# [12] = HepG2 cell cytotoxicity, dose response, cytotoxicity control, plate reader, cherry-pick, antagonist series (AID 743416); type: functional, cell-based
# [13] = LGR2 antagonists, dose response, cell-based, HEK293, CRE-luciferase reporter, cherry pick, set 2 (AID 743343); type: functional;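 further: transfected cells were stimulated with diluted bursicon conditioned medium after compound addition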
# [14] = MC4R antagonists, dose response, counter-screen for LGR2 antagonist project, cell-based, plate reader, cherry pick (AID 743444); type: functional;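 further: transfected HEK 293 cells stimulated with alpha-MSH peptide; potency of inhibitors of the alpha-MSH evoked signal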
# [15] = HEK293 cell cytotoxicity, dose response, cytotoxicity control, plate reader, cherry-picked samples (AID 743446); type: functional, cell-based
smiles,measurement,setting,value
Cc1cc2c(cc1C)CSC(c1c(O)ccc3ccccc13)SC2,EC50,[1],1.98 µM (active)
same,EC50,Streptokinase A,3.41 µM (active)
same,CC50,[2],23 µM (active)
same,EC50,Streptococcus,5.67 µM (active)
same,AC50,[3],2.24 µM (active)
same,AC50,[4],4.26 µM (active)
Cc1cc(C(=O)Nc2ccc(N3CCOCC3)cc2)c2ccccc2n1,IC50,Coagulation factor XII,> 50 µM (inactive)
same,AC50,Cytochrome P450 3A4,15.8 µM (inconclusive)
same,AC50,Cytochrome P450 2C9,inconclusive
CCCCN=C(S)NNC(=O)c1ccc(Br)o1,IC50,[5],> 122 µM (inactive)
Oc1cc2c(cc1CN1CCN(c3ncccn3)CC1)OCO2,EC50,Mu-type opioid receptor,92.5 µM (inactive)
same,EC50,[6],0.106 µM (active)
CCOC(=O)N1CCN(C(=O)c2ccc3c(c2)N(Cc2ccc(C)cc2)CCS3)CC1,AC50,[7],6 µM (active)
same,AC50,[8],> 70 µM (inactive)
same,AC50,[9],2.31 µM (active)
Cn1nnnc1Sc1ncnc2scc(-c3ccsc3)c12,AC50,[10],7.95 µM (active)
same,AC50,Paired box protein Pax-8,2.56 µM (active)
same,AC50,[11],9.63 µM (active)
same,AC50,[12],10.9 µM (active)
same,AC50,[13],6.32 µM (active)
same,AC50,[14],8.27 µM (active)
same,AC50,[15],9.67 µM (active)
O=C(c1ccco1)N1CCN(Cc2ccccc2Br)CC1,EC50,Mu-type opioid receptor,92.5 µM (inactive)
same,EC50,[6],5.91 µM (active)
O=C1C2C3C=CC(CNS(=O)(=O)c4ccccc4[N+](=O)[O-])(O3)C2C(=O)N1c1ccccc1 (stereo unspecified),AC50,[4],25.5 µM (active)
Cc1cc(N2CCCC2)ccc1NC(=O)COc1cccc(C(F)(F)F)c1,IC50,[5],> 122 µM (inactive)

# Reference: ChEMBL document CHEMBL1201862, “PubChem BioAssay data set” (2004)
